Laboratory results published in US5245034A, “Compound having vessel smooth muscle relaxation activity” (Hidaka; Kiroyoshi, priority 1988, dated 1993).
Where a name gives a salt, the structure may show the parent alone.

molecular target: Calmodulin-Dependent Phosphodiesterase (Ca^2+ PDE); assay: Calmodulin-Dependent Phosphodiesterase Inhibition (Ca^2+ PDE); format: biochemical, rat; conditions: [^3 H]-cGMP, 30° C.
Description: Phosphodiesterase (Ca^2+ PDE)Ca^2+ PDE was partially purified from the brain of rat by DEAE-Sepharose column chromatography.
Calmodulin was purified from the calf brain using a calmodulin inhibitor W-7 affinity column.
A reaction mixture contained 20 μl of 500 mM Tris-HCl (pH 8.0), 20 μl of 50 mM MgCl2, 20 μl of 2 mM CaCl2 (or 10 mM EGTA), 20 μl of 1 mg/ml bovine serum albumin, PDE, […] of calmodulin, test sample and distilled water to make total volume 200 μl. To the mixture was added 20 μl of 4 μM [^3 H]-cGMP (2.5 μCi/ml), the mixture was incubated at 30° C. for 15 minutes, and then heated in boiling water for 3 to 5 minutes to terminate the reaction, and cooled in ice-water bath. 20 μg of 5'-nucleotidase (Snake venum) was added to the mixture, and the mixture was again incubated at 30° C. for 10 minutes. After addition of about 2 ml of water, the sample was applied to a cation exchange resin column (Biorad AG.AG50W-X4 to adsorbe the [^3 H]-guanosine and additionally about 2 ml of washing water for the sample was added to the column. The column was washed with about 20 ml of water, and the adsorbed [^3 H]-guanosine was eluted with 3 ml of 3N NH4 OH, and the elute was directly received by a vial. After an addition of 10 ml of an emulsified scintillation solution (ACS-II, AMERSHAM) the radio activity was measured by a scintillation counter LS7500 (Beckmann). The enzyme activity in the presence of calmodulin was taken as […], and a concentration of a test compound in μM which provides a 50% inhibition was expressed as IC50.

IC50 [µM] | SMILES
1.9 | O=S(=O)(NC(Cc1ccc(O)cc1)CN1CCC(OCc2ccc(Cl)c(Cl)c2)CC1)c1cccc2cnccc12 (centres unmarked) [Example 87, N-{1-(p-hydroxybenzyl)-2-[4-(3,4-dichlorobenzyloxy)piperidino]ethyl}-5-isoquinolinesulfonamide]
12 | O=S(=O)(c1cccc2cnccc12)N(Cc1ccc(Cl)c(Cl)c1)C(Cc1ccc(O)cc1)CN1CCC(O)CC1 (centres unmarked) [Example 105, N-3,4-Dichlorobenzyl-N-[1-(P-Hydroxybenzyl)-2-(4-Hydroxypiperidino)Ethyl]-5-Isoquinolinesulfonamide]
63 | CN(C(Cc1ccc(OS(=O)(=O)c2cccc3cnccc23)cc1)CN1CCC(c2ccccc2)CC1)S(=O)(=O)c1cccc2cnccc12 (centres unmarked) [Example 92, N-{1-[p-(5-isoquinolinesulfonyloxy)benzyl]-2-(4-phenylpiperidino)ethyl}-N-methyl-5-isoquinolinesulfonamide]
80 | O=S(=O)(NCCN(CC=Cc1ccc(Cl)cc1)Cc1ccc(O)cc1)c1cccc2cnccc12 [Example 194, N-{2-[4-Chloro-N-(4-Hydroxybenzyl)Cinnamylamino]ethyl}-5-Isoquinolinesulfonamide]
75 | Cc1ccc(COC2CCN(CC(Cc3ccc(O)cc3)NS(=O)(=O)c3cccc4cnccc34)CC2)cc1 (centres unmarked) [Example 85, N-{1-(P-Hydroxybenzyl)-2-{4-(P-Methylbenzyloxy)Piperidino]Ethyl}-Isoquinolinesulfonamide]
59 | O=C(C(Cc1ccc([N+](=O)[O-])cc1)NS(=O)(=O)c1cccc2cnccc12)N1CCN(c2ccccc2)CC1 (centres unmarked) [Example 11, 1-[N-(5-Isoquinolinesulfonyl)-P-Nitrophenylalanyl]-4-Phenylpiperazine]
43 | Cc1ccc(S(=O)(=O)Nc2ccc(CC(NS(=O)(=O)c3cccc4cnccc34)C(=O)N3CCN(c4ccccc4)CC3)cc2)cc1 (centres unmarked) [Example 15, 1-[N-(5-Isoquinolinesulfonyl)-P-(P-Toluenesulfonylamino)Phenylalanyl]-4-Phenylpiperazine]

tested on: superior mesenteric artery (contracted by potassium chloride); assay: Vessel Smooth Muscle Relaxation Action (V.R.); format: cell-based, rabbit; conditions: Oryctolagus cuniculus; concentration relaxing KCl-contracted strain to 50%; cumulative administration; read-out: V.R. (ED50)
Source text: The specimen was suspended by loading a strain in Krebs-Henseleit solution through which an oxygen gas containing 5% carbon dioxide was bubbled. The specimen was contracted by adding potassium chloride to maintain a predetermined strain. Thereafter, a test compound was cumulatively administrated.

EC50 [µM] | SMILES
1.7 | O=S(=O)(NC(Cc1ccc(O)cc1)CN1CCC(OCc2ccc(Cl)c(Cl)c2)CC1)c1cccc2cnccc12 (centres unmarked) [Example 87, N-{1-(p-hydroxybenzyl)-2-[4-(3,4-dichlorobenzyloxy)piperidino]ethyl}-5-isoquinolinesulfonamide]
5.4 | O=S(=O)(c1cccc2cnccc12)N(Cc1ccc(Cl)c(Cl)c1)C(Cc1ccc(O)cc1)CN1CCC(O)CC1 (centres unmarked) [Example 105, N-3,4-Dichlorobenzyl-N-[1-(P-Hydroxybenzyl)-2-(4-Hydroxypiperidino)Ethyl]-5-Isoquinolinesulfonamide]
2.8 | CN(c1ccccc1NCC=Cc1cccnc1)S(=O)(=O)c1cccc2cnccc12 [Example 146, N-{2-[3-(3-pyridyl)allylamino)phenyl}-N-methyl-5-isoquinolinesulfonamide]
1.3 | COc1ccc(N2CCN(CC(Cc3ccc(OS(=O)(=O)c4cccc5cnccc45)cc3)N(C)S(=O)(=O)c3cccc4cnccc34)CC2)cc1 (centres unmarked) [Example 53, N-{1-[p-(5-isoquinolinesulfonyloxy)benzyl]-2-[4-(p-methoxyphenyl)piperazinyl]ethyl}-N-methyl-5-isoquinolinesulfonamide]
2.2 | CN(C(Cc1ccc(O)cc1)CN1CCN(C(=O)OCc2ccccc2)CC1)S(=O)(=O)c1cccc2cnccc12 (centres unmarked) [Example 67, N-[2-(4-benzyloxycarbonylpiperazinyl)-1-(p-hydroxybenzyl)ethyl]-N-methyl-5-isoquinolinesulfonamide]
11 | O=C([C@H](Cc1ccc(O)cc1)NS(=O)(=O)c1cccc2cnccc12)N1CCCN(CCCc2ccccc2)CC1 [Example 124, 1-[N-(5-Isoquinolinesulfonyl)Tyrosyl]-4-(3-Phenylpropyl)Homopiperazine]
43 | Cc1ccc(COC2CCN(CC(Cc3ccc(OS(=O)(=O)c4cccc5cnccc45)cc3)NS(=O)(=O)c3cccc4cnccc34)CC2)cc1 (centres unmarked) [Example 84]
6.9 | CN(C(Cc1ccc(OS(=O)(=O)c2cccc3cnccc23)cc1)CN1CCN(c2ccccc2)CC1)S(=O)(=O)c1cccc2cnccc12 (centres unmarked) [Example 35]
9.9 | COc1ccc(N2CCN(CC(Cc3ccc(OS(=O)(=O)c4cccc5cnccc45)cc3)NS(=O)(=O)c3cccc4cnccc34)CC2)cc1 (centres unmarked) [Example 52]
11 | CN(C)c1ccc(C=CCNCCNS(=O)(=O)c2cccc3cnccc23)cc1 [Example 174]
22 | CN(C(Cc1ccc(O)cc1)CN1CCC(NCc2ccccc2)CC1)S(=O)(=O)c1cccc2cnccc12 (centres unmarked) [Example 98, N-{2-[4-(N-benzylamino)piperidino]-1-(p-hydroxybenzyl)ethyl}-N-methyl-5-isoquinolinesulfonamide]
9.2 | COc1ccc(N2CCN(CC(Cc3ccc(N4C(=O)c5ccccc5C4=O)cc3)NS(=O)(=O)c3cccc4cnccc34)CC2)cc1 (centres unmarked) [Example 125, N-{2-[4-(P-Methoxyphenyl)Piperazinyl]-1-(P-Phthalimidebenzyl)ethyl}-5-isoquinolinesulfonamide]
1.4 | CN(C(Cc1ccc(O)cc1)CN1CCN(S(=O)(=O)c2cccc3cnccc23)CC1)S(=O)(=O)c1cccc2cnccc12 (centres unmarked) [Example 77, N-{1-(p-hydroxybenzyl]-2-[4-(5-isoquinolinesulfonyl)piperazinyl]ethyl}-N-methyl-5-isoquinolinesulfonamide]
4 | O=S(=O)(NCCCNCC=Cc1ccccc1)c1cccc2cnccc12 [Example 188, N-(3-Cinnamylaminopropyl)-5-Isoquinolinesulfonamide]
0.2 | O=S(=O)(NCCN(CC#Cc1ccc(Cl)cc1)CC#Cc1ccc(Cl)cc1)c1cccc2cnccc12 [Example 189-II, N-{2-[Bis-(3-((4-Chlorophenyl))-2-Propynyl)Amino]Ethyl}-5-Isoquinolinesulfonamide]
31 | CC(C=Cc1ccncc1)NCCNS(=O)(=O)c1cccc2cnccc12 (centres unmarked) [Example 163, N-{2-[1-Methyl-3-(4-Pyridyl)-2-Propenylamino]ethyl}-5-Isoquinolinesulfonylamide]
6.4 | O=S(=O)(c1cccc2cnccc12)N1Cc2cc(O)c(O)cc2CC1CN1CCN(c2ccccc2)CC1 (centres unmarked) [Example 10, 6,7-Dihydroxy-2-(5-Isoquinolinesulfonyl)-3-[(4-Phenylpiperazinyl)methyl]-1,2,3,4-tetrahydroisoquinoline]
0.36 | CN(C(Cc1ccccc1)CN1CCN(c2ccccc2)CC1)S(=O)(=O)c1cccc2cnccc12 (centres unmarked) [Example 43, N-[1-benzyl-2-(4-phenylpiperazinyl)ethyl]-N-methyl-5-isoquinolinesulfonamide]
1.8 | O=S(=O)(NC(Cc1ccc(OS(=O)(=O)c2cccc3cnccc23)cc1)CN1CCN(c2ccccc2)CC1)c1cccc2cnccc12 (centres unmarked) [Example 34]
1.3 | CC(C=Cc1ccccc1)NCCNS(=O)(=O)c1cccc2cnccc12 (stereo not drawn) [Example 202, N-[2-(α-Methylcinnamylamino)Ethyl]-5-Isoquinolinesulfonamide 1/2 Fumarate]
4.4 | O=S(=O)(NC(Cc1ccc(O)cc1)CN1CCN(c2ccccc2)CC1)c1cccc2cnccc12 (centres unmarked) [Example 37, N-[1-(p-hydroxybenzyl)-2-(4-phenylpiperazinyl)ethyl]-5-isoquinolinesulfonamide]
1.7 | CN(C(Cc1ccc(OS(=O)(=O)c2cccc3cnccc23)cc1)CN1CCCN(c2ccccc2)CC1)S(=O)(=O)c1cccc2cnccc12 (centres unmarked) [Example 81, N-{1-[p-(5-isoquinolinesulfonyloxy)benzyl]-2-(4-phenylhomopiperazinyl)ethyl}-N-methyl-5-isoquinolinesulfonamide]
1.8 | CN(C(Cc1ccc(OS(=O)(=O)c2cccc3ccccc23)cc1)CN1CCN(C(=O)OCc2ccccc2)CC1)S(=O)(=O)c1cccc2ccccc12 (stereo not drawn) [Example 78, N-{2-(4-benzyloxycarbonylpiperazinyl)-1-[p-(α-naphtharenesulfonyloxy)benzyl]ethyl}-N-methyl-α-naphtharenesulfonamide]
2.3 | CN(C(Cc1ccc(O)cc1)CN1CCN(S(=O)(=O)c2ccccc2)CC1)S(=O)(=O)c1cccc2cnccc12 (centres unmarked) [Example 62, N-{2-[(4-Benzenesulfonyl)Piperazinyl)-1-(P-Hydroxybenzyl)-Ethyl}-N-Methyl-5-Isoquinolinesulfonamide]
1.8 | COc1ccc(N2CCN(CC(Cc3ccc(N)cc3)N(C)S(=O)(=O)c3cccc4cnccc34)CC2)cc1 (centres unmarked) [Example 128, N-{1-(p-aminobenzyl)-2-[4-(p-methoxyphenyl)piperazinyl]ethyl}-N-methyl-5-isoquinolinesulfonamide]
9.7 | CN(C(Cc1ccc(O)cc1)CN1CCN(C(=O)c2ccccc2)CC1)S(=O)(=O)c1cccc2cnccc12 (centres unmarked) [Example 75, N-[2-(4-Benzoylpiperazinyl)-1-(P-Hydroxybenzyl)Ethyl]-N-Methyl-5-Isoquinolinesulfonamide]
24 ± 7 | O=C(CCc1ccccc1)N1CCN(C(=O)[C@H](Cc2ccc(O)cc2)NS(=O)(=O)c2cccc3cnccc23)CC1 [Example 31, 1-[N-(5-isoquinolinesulfonyl)tyrosyl]-4-(3-phenylpropionyl)piperazine]

SMILES | EC50 [µM]
CC(=O)Oc1ccc(CC(CN2CCC(OC(C)=O)CC2)N(C)S(=O)(=O)c2cccc3cnccc23)cc1 (centres unmarked) [Example 102, N-[1-(P-Acetoxybenzyl)-2-(4-Acetoxypiperidino)Ethyl]-N-Methyl-5-Isoquinolinesulfonamide] | 24
